Data from PubChem BioAssay (NCI).
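Method: 48-hour compound exposure of cells in 96-well plates, five concentrations, linear interpolation of endpoints. At the TGI there is no net growth.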

These compounds were tested on NCI-H522 lung (assay: inhibition of tumour cell growth, NCI panel, 48 h).

Point of comparison: `CC1=CC2C3(C)C(C)(C(C)=CP3(=O)c3c(C(C)C)cc(C(C)C)cc3C(C)C)C1P2(=O)c1c(C(C)C)cc(C(C)C)cc1C(C)C` (centres undefined), TGI 8.64 µM. Against it:
- Cc1ccc2c(c1)CN1c3ccc(C)cc3CN2C1c1ccccc1O — higher, > 100 µM
- N#CNC(N)=NCc1ccccc1 — higher, > 100 µM
- CC1=N/C(=C\c2ccc(/C=C3/N=C(C)OC3=O)cc2)C(=O)O1 — higher, > 100 µM
- O=C(NCc1ccccc1)c1cc2ccccc2oc1=Nc1cccc(C(F)(F)F)c1 — higher, > 100 µM
- CC1=NN(C(=O)Cc2ccccc2)C(=O)/C1=C\c1ccc(O)cc1 — higher, > 100 µM

The compounds below were run on LXFL 529 NSCLC (assay: inhibition of tumour cell growth, NCI panel, 48 h).

`Cc1ccc2c(c1)CN1c3ccc(C)cc3CN2C1c1ccccc1O` and `CC1=NN(C(=O)Cc2ccccc2)C(=O)/C1=C\c1ccc(O)cc1` cannot be ordered by TGI: over 100 µM for the first, over 100 µM for the second.

`N#CNC(N)=NCc1ccccc1` and `CC1=N/C(=C\c2ccc(/C=C3/N=C(C)OC3=O)cc2)C(=O)O1` cannot be ordered by TGI: over 100 µM for the first, over 100 µM for the second.

The compounds below were run on TK-10 renal (assay: inhibition of tumour cell growth, NCI panel, 48 h).

Point of comparison: `CC1=CC2C3(C)C(C)(C(C)=CP3(=O)c3c(C(C)C)cc(C(C)C)cc3C(C)C)C1P2(=O)c1c(C(C)C)cc(C(C)C)cc1C(C)C` (centres undefined), TGI 7.34 µM. Against it:
- O=C1Oc2ccccc2C(=O)/C1=C1/C=C(c2ccccc2)SS1 — higher, > 100 µM
- Cc1ccc2c(c1)CN1c3ccc(C)cc3CN2C1c1ccccc1O — 12-fold higher, 88.1 µM
- N#CNC(N)=NCc1ccccc1 — higher, > 100 µM
- CC1=N/C(=C\c2ccc(/C=C3/N=C(C)OC3=O)cc2)C(=O)O1 — higher, > 100 µM
- O=C(NCc1ccccc1)c1cc2ccccc2oc1=Nc1cccc(C(F)(F)F)c1 — higher, > 100 µM
- CC1=NN(C(=O)Cc2ccccc2)C(=O)/C1=C\c1ccc(O)cc1 — higher, > 100 µM

These compounds were tested on HOP-62 NSCLC (assay: inhibition of tumour cell growth, NCI panel, 48 h).

Point of comparison: `CC1=CC2C3(C)C(C)(C(C)=CP3(=O)c3c(C(C)C)cc(C(C)C)cc3C(C)C)C1P2(=O)c1c(C(C)C)cc(C(C)C)cc1C(C)C` (centres undefined), TGI 10.4 µM. Against it:
- O=C1Oc2ccccc2C(=O)/C1=C1/C=C(c2ccccc2)SS1 — higher, > 100 µM
- Cc1ccc2c(c1)CN1c3ccc(C)cc3CN2C1c1ccccc1O — higher, > 100 µM
- N#CNC(N)=NCc1ccccc1 — higher, > 100 µM
- CC1=N/C(=C\c2ccc(/C=C3/N=C(C)OC3=O)cc2)C(=O)O1 — higher, > 100 µM
- O=C(NCc1ccccc1)c1cc2ccccc2oc1=Nc1cccc(C(F)(F)F)c1 — higher, > 100 µM
- CC1=NN(C(=O)Cc2ccccc2)C(=O)/C1=C\c1ccc(O)cc1 — higher, > 100 µM

What follows are compounds tested on CAKI-1 renal (assay: inhibition of tumour cell growth, NCI panel, 48 h).

Point of comparison: `CC1=CC2C3(C)C(C)(C(C)=CP3(=O)c3c(C(C)C)cc(C(C)C)cc3C(C)C)C1P2(=O)c1c(C(C)C)cc(C(C)C)cc1C(C)C` (centres undefined), TGI 15.9 µM. Against it:
- O=C1Oc2ccccc2C(=O)/C1=C1/C=C(c2ccccc2)SS1 — higher, > 100 µM
- Cc1ccc2c(c1)CN1c3ccc(C)cc3CN2C1c1ccccc1O — higher, > 100 µM
- CC1=N/C(=C\c2ccc(/C=C3/N=C(C)OC3=O)cc2)C(=O)O1 — higher, > 100 µM
- O=C(NCc1ccccc1)c1cc2ccccc2oc1=Nc1cccc(C(F)(F)F)c1 — higher, > 100 µM
- CC1=NN(C(=O)Cc2ccccc2)C(=O)/C1=C\c1ccc(O)cc1 — higher, > 100 µM

What follows are compounds tested on DMS 114 small cell lung (assay: inhibition of tumour cell growth, NCI panel, 48 h).

`Cc1ccc2c(c1)CN1c3ccc(C)cc3CN2C1c1ccccc1O` and `CC1=NN(C(=O)Cc2ccccc2)C(=O)/C1=C\c1ccc(O)cc1` cannot be ordered by TGI: over 100 µM for the first, over 100 µM for the second.

`N#CNC(N)=NCc1ccccc1` and `CC1=N/C(=C\c2ccc(/C=C3/N=C(C)OC3=O)cc2)C(=O)O1` cannot be ordered by TGI: over 100 µM for the first, over 100 µM for the second.

These compounds were tested on EKVX NSCLC (assay: inhibition of tumour cell growth, NCI panel, 48 h).

Point of comparison: `Cc1ccc2c(c1)CN1c3ccc(C)cc3CN2C1c1ccccc1O`, TGI 54.9 µM. Against it:
- O=C1Oc2ccccc2C(=O)/C1=C1/C=C(c2ccccc2)SS1 — higher, > 100 µM
- O=C(NCc1ccccc1)c1cc2ccccc2oc1=Nc1cccc(C(F)(F)F)c1 — higher, > 100 µM
- CC1=NN(C(=O)Cc2ccccc2)C(=O)/C1=C\c1ccc(O)cc1 — higher, > 100 µM
- CC1=CC2C3(C)C(C)(C(C)=CP3(=O)c3c(C(C)C)cc(C(C)C)cc3C(C)C)C1P2(=O)c1c(C(C)C)cc(C(C)C)cc1C(C)C (centres undefined) — 5.6-fold lower, 9.83 µM

Each compound was assayed on U251 CNS (assay: inhibition of tumour cell growth, NCI panel, 48 h).

Point of comparison: `CC1=CC2C3(C)C(C)(C(C)=CP3(=O)c3c(C(C)C)cc(C(C)C)cc3C(C)C)C1P2(=O)c1c(C(C)C)cc(C(C)C)cc1C(C)C` (centres undefined), TGI 6.59 µM. Against it:
- O=C1Oc2ccccc2C(=O)/C1=C1/C=C(c2ccccc2)SS1 — higher, > 100 µM
- Cc1ccc2c(c1)CN1c3ccc(C)cc3CN2C1c1ccccc1O — higher, > 100 µM
- N#CNC(N)=NCc1ccccc1 — higher, > 100 µM
- CC1=N/C(=C\c2ccc(/C=C3/N=C(C)OC3=O)cc2)C(=O)O1 — higher, > 100 µM
- O=C(NCc1ccccc1)c1cc2ccccc2oc1=Nc1cccc(C(F)(F)F)c1 — higher, > 100 µM
- CC1=NN(C(=O)Cc2ccccc2)C(=O)/C1=C\c1ccc(O)cc1 — higher, > 100 µM

The compounds below were run on HCC-2998 colon (assay: inhibition of tumour cell growth, NCI panel, 48 h).

Point of comparison: `CC1=CC2C3(C)C(C)(C(C)=CP3(=O)c3c(C(C)C)cc(C(C)C)cc3C(C)C)C1P2(=O)c1c(C(C)C)cc(C(C)C)cc1C(C)C` (centres undefined), TGI 3.47 µM. Against it:
- O=C1Oc2ccccc2C(=O)/C1=C1/C=C(c2ccccc2)SS1 — higher, > 100 µM
- N#CNC(N)=NCc1ccccc1 — higher, > 100 µM
- CC1=N/C(=C\c2ccc(/C=C3/N=C(C)OC3=O)cc2)C(=O)O1 — higher, > 100 µM
- O=C(NCc1ccccc1)c1cc2ccccc2oc1=Nc1cccc(C(F)(F)F)c1 — 18-fold higher, 61.1 µM
- CC1=NN(C(=O)Cc2ccccc2)C(=O)/C1=C\c1ccc(O)cc1 — higher, > 100 µM

What follows are compounds tested on HS 578T breast (assay: inhibition of tumour cell growth, NCI panel, 48 h).

Point of comparison: `CC1=CC2C3(C)C(C)(C(C)=CP3(=O)c3c(C(C)C)cc(C(C)C)cc3C(C)C)C1P2(=O)c1c(C(C)C)cc(C(C)C)cc1C(C)C` (centres undefined), TGI 6.25 µM. Against it:
- O=C1Oc2ccccc2C(=O)/C1=C1/C=C(c2ccccc2)SS1 — higher, > 100 µM
- O=C(NCc1ccccc1)c1cc2ccccc2oc1=Nc1cccc(C(F)(F)F)c1 — higher, > 100 µM

What follows are compounds tested on SK-OV-3 ovarian (assay: inhibition of tumour cell growth, NCI panel, 48 h).

Point of comparison: `CC1=CC2C3(C)C(C)(C(C)=CP3(=O)c3c(C(C)C)cc(C(C)C)cc3C(C)C)C1P2(=O)c1c(C(C)C)cc(C(C)C)cc1C(C)C` (centres undefined), TGI 10.9 µM. Against it:
- O=C1Oc2ccccc2C(=O)/C1=C1/C=C(c2ccccc2)SS1 — higher, > 100 µM
- Cc1ccc2c(c1)CN1c3ccc(C)cc3CN2C1c1ccccc1O — higher, > 100 µM
- N#CNC(N)=NCc1ccccc1 — higher, > 100 µM
- CC1=N/C(=C\c2ccc(/C=C3/N=C(C)OC3=O)cc2)C(=O)O1 — higher, > 100 µM
- O=C(NCc1ccccc1)c1cc2ccccc2oc1=Nc1cccc(C(F)(F)F)c1 — higher, > 100 µM
- CC1=NN(C(=O)Cc2ccccc2)C(=O)/C1=C\c1ccc(O)cc1 — higher, > 100 µM

These compounds were tested on SNB-75 CNS (assay: inhibition of tumour cell growth, NCI panel, 48 h).

Point of comparison: `Cc1ccc2c(c1)CN1c3ccc(C)cc3CN2C1c1ccccc1O`, TGI 9.08 µM. Against it:
- O=C1Oc2ccccc2C(=O)/C1=C1/C=C(c2ccccc2)SS1 — higher, > 100 µM
- N#CNC(N)=NCc1ccccc1 — higher, > 100 µM
- CC1=N/C(=C\c2ccc(/C=C3/N=C(C)OC3=O)cc2)C(=O)O1 — higher, > 100 µM
- O=C(NCc1ccccc1)c1cc2ccccc2oc1=Nc1cccc(C(F)(F)F)c1 — higher, > 100 µM
- CC1=CC2C3(C)C(C)(C(C)=CP3(=O)c3c(C(C)C)cc(C(C)C)cc3C(C)C)C1P2(=O)c1c(C(C)C)cc(C(C)C)cc1C(C)C (centres undefined) — within 1.5-fold, 12.1 µM

Each compound was assayed on UACC-62 melanoma (assay: inhibition of tumour cell growth, NCI panel, 48 h).

Point of comparison: `CC1=CC2C3(C)C(C)(C(C)=CP3(=O)c3c(C(C)C)cc(C(C)C)cc3C(C)C)C1P2(=O)c1c(C(C)C)cc(C(C)C)cc1C(C)C` (centres undefined), TGI 2.92 µM. Against it:
- O=C1Oc2ccccc2C(=O)/C1=C1/C=C(c2ccccc2)SS1 — higher, > 100 µM
- Cc1ccc2c(c1)CN1c3ccc(C)cc3CN2C1c1ccccc1O — higher, > 100 µM
- CC1=N/C(=C\c2ccc(/C=C3/N=C(C)OC3=O)cc2)C(=O)O1 — higher, > 100 µM
- O=C(NCc1ccccc1)c1cc2ccccc2oc1=Nc1cccc(C(F)(F)F)c1 — higher, > 100 µM
- CC1=NN(C(=O)Cc2ccccc2)C(=O)/C1=C\c1ccc(O)cc1 — higher, > 100 µM

What follows are compounds tested on NCI/ADR-RES ovarian (assay: inhibition of tumour cell growth, NCI panel, 48 h).

Point of comparison: `CC1=CC2C3(C)C(C)(C(C)=CP3(=O)c3c(C(C)C)cc(C(C)C)cc3C(C)C)C1P2(=O)c1c(C(C)C)cc(C(C)C)cc1C(C)C` (centres undefined), TGI 9.89 µM. Against it:
- O=C1Oc2ccccc2C(=O)/C1=C1/C=C(c2ccccc2)SS1 — higher, > 100 µM
- O=C(NCc1ccccc1)c1cc2ccccc2oc1=Nc1cccc(C(F)(F)F)c1 — higher, > 100 µM

Each compound was assayed on NCI-H23 lung (assay: inhibition of tumour cell growth, NCI panel, 48 h).

Point of comparison: `CC1=CC2C3(C)C(C)(C(C)=CP3(=O)c3c(C(C)C)cc(C(C)C)cc3C(C)C)C1P2(=O)c1c(C(C)C)cc(C(C)C)cc1C(C)C` (centres undefined), TGI 4.09 µM. Against it:
- O=C1Oc2ccccc2C(=O)/C1=C1/C=C(c2ccccc2)SS1 — higher, > 100 µM
- Cc1ccc2c(c1)CN1c3ccc(C)cc3CN2C1c1ccccc1O — higher, > 100 µM
- N#CNC(N)=NCc1ccccc1 — higher, > 100 µM
- CC1=N/C(=C\c2ccc(/C=C3/N=C(C)OC3=O)cc2)C(=O)O1 — higher, > 100 µM
- O=C(NCc1ccccc1)c1cc2ccccc2oc1=Nc1cccc(C(F)(F)F)c1 — higher, > 100 µM
- CC1=NN(C(=O)Cc2ccccc2)C(=O)/C1=C\c1ccc(O)cc1 — higher, > 100 µM

These compounds were tested on MOLT-4 leukemia (assay: inhibition of tumour cell growth, NCI panel, 48 h).

Point of comparison: `CC1=CC2C3(C)C(C)(C(C)=CP3(=O)c3c(C(C)C)cc(C(C)C)cc3C(C)C)C1P2(=O)c1c(C(C)C)cc(C(C)C)cc1C(C)C` (centres undefined), TGI 5.78 µM. Against it:
- O=C1Oc2ccccc2C(=O)/C1=C1/C=C(c2ccccc2)SS1 — 12-fold higher, 71.8 µM
- Cc1ccc2c(c1)CN1c3ccc(C)cc3CN2C1c1ccccc1O — higher, > 100 µM
- N#CNC(N)=NCc1ccccc1 — higher, > 100 µM
- O=C(NCc1ccccc1)c1cc2ccccc2oc1=Nc1cccc(C(F)(F)F)c1 — 16-fold higher, 92.5 µM
- CC1=NN(C(=O)Cc2ccccc2)C(=O)/C1=C\c1ccc(O)cc1 — higher, > 100 µM

These compounds were tested on PC-3 prostate (assay: inhibition of tumour cell growth, NCI panel, 48 h).

Point of comparison: `CC1=CC2C3(C)C(C)(C(C)=CP3(=O)c3c(C(C)C)cc(C(C)C)cc3C(C)C)C1P2(=O)c1c(C(C)C)cc(C(C)C)cc1C(C)C` (centres undefined), TGI 10.4 µM. Against it:
- O=C1Oc2ccccc2C(=O)/C1=C1/C=C(c2ccccc2)SS1 — higher, > 100 µM
- O=C(NCc1ccccc1)c1cc2ccccc2oc1=Nc1cccc(C(F)(F)F)c1 — higher, > 100 µM

What follows are compounds tested on OVCAR-3 ovarian (assay: inhibition of tumour cell growth, NCI panel, 48 h).

`O=C1Oc2ccccc2C(=O)/C1=C1/C=C(c2ccccc2)SS1` showed a TGI of over 100 µM.
